The text below walks through data of patent US8815778B2, “PH modulation method to detect ligand-receptor binding” (The Texas A&M University System, priority 2008, dated 2014).

Where two headings read alike, the source gives them in different places.

The conditions of data set [1]: cited from earlier work; for τ0 (fluorescence lifetime): dye concentrations of about 10^−7 M; for φb (quantum yield of photobleaching) / μ (mean number of survived excitation cycles): in water at low irradiances; for μ (mean number of survived excitation cycles): μ calculated from φb.
A further data set addresses avidin (Gallus gallus, UniProt P02701). As to the kind of experiment: Homogeneous pH modulation assay in capillary tubes with Texas Red succinimidyl ester conjugated avidin. The settings on record: for fluorescence intensity versus capillary without ligand: 3 μM ortho-Texas Red succinimidyl ester conjugated avidin, PBS pH 7.0. The format is binding. The text has this:
The pH modulation detection assay is amenable monitoring protein-small molecule and protein-protein interactions homogeneously in aqueous solution.
Avidin was labeled with Texas Red® succinimidyl ester as follows: The ortho isomer of Texas Red® succinimidyl ester was separated from the para isomer via thin layer chromatography utilizing silica plates (TLC Silica Gel 60 F254, EMD Chemicals) and 8:92 (methanol:chloroform) solvent. The separated band was removed from the plates with a razor and the ortho-Texas Red® succinimidyl ester was eluted from the silica with the same methanol/chloroform solvent. The dye (21 μg) was dried down with nitrogen in a 2 mL reactive vial containing a magnetic stir bar. To this reaction vial was added 0.5 mL of a 2 mg/mL avidin solution in 1 M sodium bicarbonate. This solution was allowed to stir for two hours at room temperature before being separated in a column containing Bio-Rad BioGel® Fine size purification resin in phosphate buffered saline (PBS, 10 mM potassium phosphate, 150 mM NaCl, 2 mM sodium azide, pH 7.2). This PBS was utilized as the elution buffer as well. The collected Texas-Red® succinimidyl ester-labeled avidin was utilized in the sensing experiments.
The two rectangular capillaries were passivated with a surface coating of bovine serum albumin (BSA). The BSA was then thoroughly rinsed away with phosphate buffered saline (10 mM Na2HPO4, 150 mM NaCl, pH 7.0). Next, a 3 μM solution of ortho-Texas Red® succinimidyl ester conjugated avidin was introduced in PBS into both capillaries. The right capillary additionally contained a 200 μM concentration of biotin (vitamin B7). A line scan across the micrograph is shown on the right. […] It should be noted that avidin is a positively charged protein and the biotin is […] in solution near pH 7.0. Therefore, the local pH near the protein surface is lowered when the small molecule binds.
As a control, the same set of experiments was run as in FIG. 38. However, this time the avidin was conjugated with para-Texas Red® succinimidyl ester (FIG. 39). […]

Data set [2] is described as follows: pH modulation assay of avidin and streptavidin on biotin-PE bilayers (turn on / turn off). The data set is classed as binding. The settings on record: 1 μM protein. The text has this: In addition to being able to detect negatively charged proteins, experiments have also been performed showing that our pH modulation assay can detect positively charged proteins. In this case, the sensor works as a “turn off” rather than as a “turn on” sensor. To investigate this, the binding of avidin, which is a positively charged macromolecule, was studied. The conditions were similar to those described above except where explicitly stated. Under all conditions, a saturation concentration of avidin or streptavidin was employed (1 μM). The bilayers each contained 1 mol % biotin-PE and 0.03 mol % ortho-Texas Red® DHPE.
However, upon adding 20 mol % DOPS (a negatively charged lipid) to the membrane, the assay was rerun at pH 9.25. Under these conditions, it detects avidin in a “turn off” mode and streptavidin in a “turn on” mode.

The conditions of data set [3]: literature values; cited from earlier work.
A short description of data set [4]: pH titration of Texas Red DHPE isomers in supported lipid bilayers (fluorescence). The format is physicochemical. The procedure:
The peak heights from the ortho-conjugated Texas Red® data in FIG. 5 may be used to obtain a titration curve for this isomer. […] To obtain the y-axis, the peak height at pH 3 was set to 1.0, and all other peak heights are relative to this value.
pH Titration and Buffer Preparation. […] These pH values were chosen to locate the pKA value of ortho-Texas Red® DHPE. The pH could be adjusted to the desired value by the dropwise addition of HCl or NaOH. The pH was measured with a standard glass electrode setup. […] Titration curves for the dye molecules in SLBs were obtained by systematically changing the pH of the bulk solution in a stepwise fashion. Fresh buffer was continuously flowed over the surface until no further changes in fluorescence intensity could be observed. […] Fluorescent micrographs of SLBs were captured with a standard epifluorescence microscope setup (Nikon Eclipse E800).
The fluorescence titration curve of the Texas Red® DHPE dye molecules was monitored in SLBs containing two narrow, parallel lines of bilayers with distinct dye chemistries. […] The second line was identical, but contained para-Texas Red® DHPE instead of the ortho isomer. The surrounding lipid matrix was a 1:1:1 mixture of DOPC, DPPC, and cholesterol.
In this case, however, a saturation concentration of IgG (500 nM) was first introduced into the bulk solution. Moreover, all fluorescence measurements as a function of pH were performed in the presence of 500 nM bulk protein concentration to ensure that the surface remained saturated with protein.
Titration Curves for ortho-Texas Red® DHPE. In a first set of experiments, the pH dependent responses of the ortho- and para-conjugated Texas Red® dyes were investigated in supported POPC bilayers with 0.5 mol % biotin-cap-PE. […] Bulk solutions at a given pH value were continuously flowed into the device until the fluorescence intensity remained constant. Fluorescence images at each pH value were then captured (FIG. 15a).
Titration Curve with a Saturated Protein Layer. […] First, two separated bilayer strips were formed as described above. […] All subsequent measurements were made by tuning the solution pH value, but keeping the bulk IgG concentration constant.

The conditions of data set [5]: biotin/streptavidin binding, literature; cited from earlier work.
Setting [6] is: pH 8.2, POPC, 1 mol % biotin-PE, 0.03 mol % ortho-Texas Red DHPE.
Setting [7] is: pH 9.25, 20 mol % DOPS added to the membrane.

Chain of avidin (P02701 25-152, species assumed): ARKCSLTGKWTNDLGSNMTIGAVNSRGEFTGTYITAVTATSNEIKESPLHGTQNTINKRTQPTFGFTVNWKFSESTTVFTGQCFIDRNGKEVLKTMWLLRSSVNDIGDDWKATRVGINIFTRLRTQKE

For `Cc1cc(=O)[nH]c2cc(N)ccc12` [Carbostyril 124], in data set [1] (335 nm), the “σ01 (λ)” value was 6.3 (335 nm) 10^−17 cm^2. In data set [1], the “τ0 (fluorescence lifetime)” value was 5.0 ns, the “φb (quantum yield of photobleaching)” value was 1.4 × 10^−3 and the “μ (mean number of survived excitation cycles)” value is reported as 700.

With `Cc1cc(=O)oc2c3c4c(cc12)CCCN4CCC3` [Coumarin 102], in data set [1] (397 nm), the “σ01 (λ)” value was 7.0 (397 nm) 10^−17 cm^2. Besides, in data set [1], the “τ0 (fluorescence lifetime)” value was 5.5 ns, the “φb (quantum yield of photobleaching)” value is 4.3 × 10^−4 and the “μ (mean number of survived excitation cycles)” value is 2 300.

On to `Cc1cc(=O)oc2cc(N)ccc12` [Coumarin 120], for which the “σ01 (λ)” value in data set [1] (365 nm) is 3.9 (365 nm) 10^−17 cm^2. In data set [1], the “τ0 (fluorescence lifetime)” value is 5.0 ns, the “φb (quantum yield of photobleaching)” value is 3.4 × 10^−4 and the “μ (mean number of survived excitation cycles)” value is on record as 3 000.

For `CCNc1cc2oc(=O)cc(C(F)(F)F)c2cc1C` [Coumarin 307], the “σ01 (λ)” value in data set [1] (397 nm) was 5.4 (397 nm) 10^−17 cm^2. In addition, in data set [1], the “τ0 (fluorescence lifetime)” value is 4.5 ns, the “φb (quantum yield of photobleaching)” value is recorded as 1.5 × 10^−4 and the “μ (mean number of survived excitation cycles)” value is 6 500.

As to `CN(C)c1ccc2c(-c3ccccc3C(=O)[O-])c3ccc(N(C)C)cc3[o+]c2c1` [TMR], the “σ01 (λ)” value in data set [1] (515 nm) is recorded as 13.3 (515 nm) 10^−17 cm^2. In addition, in data set [1], the “τ0 (fluorescence lifetime)” value is 2.3 ns, the “φb (quantum yield of photobleaching)” value is 3.3 × 10^−7 and the “μ (mean number of survived excitation cycles)” value is reported as 3 070 000.

Take `O=C(O)CCCC[C@@H]1SC[C@@H]2NC(=O)N[C@@H]21` [biotin]: at avidin (200 μM biotin), the “fluorescence intensity versus capillary without ligand” value is recorded as “approximately a factor of five higher”. Besides, the “fluorescence difference between the two capillary tubes” value on avidin (avidin conjugated with para-Texas Red succinimidyl ester (control), saturation biotin) is recorded as “little if any fluorescence difference”.

Consider Coumarin 39, for which, in data set [1], the “τ0 (fluorescence lifetime)” value was 5.6 ns, the “φb (quantum yield of photobleaching)” value is 1.2 × 10^−3 and the “μ (mean number of survived excitation cycles)” value is recorded as 800.

For the molecule Rhodamine 123, in data set [1] (515 nm), the “σ01 (λ)” value is on record as 12.3 (515 nm) 10^−17 cm^2. In addition, in data set [1], the “τ0 (fluorescence lifetime)” value was 4.0 ns, the “φb (quantum yield of photobleaching)” value was 6.4 × 10^−7 and the “μ (mean number of survived excitation cycles)” value was 1 570 000.

As to “avidin: positively charged biotin-binding protein”, the “detection by the pH modulation assay” value is given as “turn off mode” in data set [2] (setting [6]) and “turn off” in data set [2] (setting [7]). Further, the “isoelectric point (pI)” value in data set [3] is recorded as 10.4.

For the molecule “biotinylated bovine serum albumin: biotinylated bovine serum albumin (BSA)”, the “fluorescence intensity versus capillary without ligand” value with avidin (500 μM biotinylated BSA) is given as “approximately a factor of eight higher”.

Take “ortho-sulforhodamine 101-DHPE [ortho-Texas Red® DHPE]”: in data set [4] (20 mol % DOPS added to the membranes, with respect to FIG. 15b), the “shift of apparent pKA to a more basic value” came out at 0.44 pH units. In data set [4] (POPC bilayers with 0.5 mol % biotin-cap-PE, pH 10.2 to 4.0), the “fluorescence intensity of the band as a function of bulk pH” value is “showed higher intensity at more acidic pH values”. The “apparent pKA” value in data set [4] (SLB containing 0.5 mol % biotin-cap-PE on glass, pH 10.2 to 4.0, ortho/para ratio, FIG. 15b) was determined as 7.8±0.1. The “apparent shift of titration curve midpoint” value in data set [4] (saturated anti-biotin IgG layer (500 nM) versus no bound proteins) is on record as around 0.35 pH units. Further, the “pKA of the dye” value in data set [4] (supported phospholipid bilayer, pH 3 to 11, FIG. 6) was found to be 7.8.

As to “streptavidin: negatively charged biotin-binding protein”, the entries for the “detection by the pH modulation assay” value in data set [2] (setting [6]) and in data set [2] (setting [7]) were “does not detect” and “turn on”, respectively. Moreover, the Kd in data set [5] was around 1 pM. Besides, the “isoelectric point (pI)” value in data set [3] is reported as 6.4.

One may read the Kd as the free concentration of one partner at which half of the binding sites on the other are occupied at equilibrium, for simple one-to-one binding.
